Here are results for six compounds from US9610294B2, “Methods and compositions for the treatment of fluid accumulation in and/or under the retina” (UNIVERSITE PARIS DESCARTES, priority 2010, dated 2017).

Read-outs that look alike come from different tables or passages of the source.

For data set [1], the system named is retina. Nature of the data set: Intraocular injection in Brown Norway rats (gain of function mutation in the MR gene): CSCR-like retinal pathology. The class given is in vivo. The conditions noted are these: FIGS. 1 and 2.
The test system of data set [2] is retina. Description: Intravitreal spironolactone in GK diabetic rats: retinal histology. The class given is in vivo, Goto-Kakizaki (GK) rats. How it is done:
Goto-Kakizaki (GK) rats have been used as model for diabetic retinopathy. GK rats (Taconic Europe, Denmark), a Wistar non-obese model of Non-Insulin Dependent type 2 Diabetes were used at different ages of hyperglycemia. Glycemia was measured using Accutrend GC and Accu-check compact equipments (Roche) and plasma glucose >250 mg/dl was considered as diabetic state. […] Controls were selected from age-matched non-diabetic rats and with plasma glucose <150 mg/dl. […] 18 months diabetic rats were treated with intravitreous injections (1 μM) at day 1,3,5 and animals were re tested for ERGs 24 hrs after each injection. 24 hrs after the third injection, animals were sacrificed and the retina were analyzed using semi-thin sections.

Data set [3] concerns retina. Nature of the data set: Intravitreal spironolactone in GK diabetic rats: electroretinograms (ERG). The format is in vivo, Goto-Kakizaki (GK) rats. The conditions noted are these: 18 months diabetic GK rats, intravitreous 1 μM at day 1,3,5; 24 hrs after last injection, FIG. 7. As for the experimental part:
In 18 months-old GK rats, electroretinogramms were preformed (ERG).
18 months diabetic rats were treated with intravitreous injections (1 μM) at day 1,3,5 and animals were re tested for ERGs 24 hrs after each injection.

For data set [4], the system named is sub retinal and/or intra retinal fluid. Description: Oral eplerenone in patients with CSCR or chronic diffuse epitheliopathy. The format is in vivo, human. The note with it: for recurrence: at 6 months. From the text: Patients with non-resolutive or chronic diffuse epitheliopathy presenting with macular fluid accumulation have been treated with oral eplerenone, a specific MR antagonist. […] On the contrary, 4 months later and at 1 week before treatment, the amount of fluid had accumulated. […] They have a long history of recurrent CSCR on both eyes. In their left eye (OS), they present a macular edema with sub retinal fluid and retinal cysts. The left eye vision is reduced to 1/10 and the edema is chronic since more than 2 years. They have been treated with eplerenone 25 mg/day for 8 days and then 50 mg/days for 3 month. […] Moreover, vision in the left eye recovered to 6/10. No recurrence was observed on none of the eyes even at 6 months.

Data set [5] relates to Kir4.1. Nature of the data set: Kir4.1 expression (real-time PCR, western blot) in rat RMG primary cultures and retinal explants. The class given is cell-based. The note with it: for aldosterone-induced Kir4.1 up-regulation in presence of antagonist: 10 nM aldosterone plus 1 µM antagonist, 24 hrs. As for the experimental part: (§1) Rat RMG cells were obtained as described (deKozak, Y., Naud, M. C., Bellot, J., Faure, J. P., and Hicks, D. (1994) Differential tumor necrosis factor expression by resident retinal cells from experimental uveitis-susceptible and -resistant rat strains. J Neuroimmunol 55, 1-9). Briefly, rats at postnatal (PN) day 17 (when RMG cells are mature) were sacrificed and eyes enucleated. Intact eyeballs were maintained in DMEM overnight at room temperature in the dark, and then incubated 45 min with 2 mg/ml trypsin/collagenase I at 37° C. The neural retinas were separated from the lens and vitreous, cut into small fragments and plated in Petri dishes containing DMEM supplemented with 10% FCS, 100 units/ml penicillin, 100 µg/ml streptomycin, and 0.2% amphotericin B. Cultures were maintained at 37° C. in a humidified atmosphere containing 5% CO2. After 5 to 6 days, the cultures were washed extensively with medium so that only a strongly adherent flat cell population remained.
(§2) Müller cells were seeded in 6-well tissue culture plates (Becton Dickinson, Le Pont de Claix, France). Rat PN17 RMG cells were maintained in their initial Petri dishes. Sub confluent (80%) cells were incubated in media supplemented with 10% steroid-free (charcoal treated) FCS for 24 hrs. Corticosteroid (Sigma-Aldrich, Saint Quentin Fallavier, France) treatments were then applied respectively for a further 24 hrs: 10 nM aldosterone, 10 nM aldosterone plus 1).IM RU38486 (GR-specific antagonist), 10 nM aldosterone plus 1 µM RU26752 (MR-specific antagonist) or 1 µM dexamethasone. The steroids were previously dissolved in 2% steroid-free FCS media containing 0.1% ethanol. Control cells were treated with 0.1% ethanol in media.
(§3) After enucleation, rat retinas were isolated immediately under aseptic conditions and cut into 4 pieces. They were then transferred onto a Cyclopore 0.2).Im polycarbonate membrane (Whatman, Maidstone, England), and flatmounted with the vitreal side up. The support membranes were placed in 6-well tissue culture plates containing 2 ml DMEM supplemented with 10% steroid-free FCS, 1% penicillin-streptomycin and 0.1% amphotericin B. Explants were treated with corticosteroids as described for cultured cells. Similarly, the dose-dependent effect of aldosterone (0.1-100 nM) was analyzed on retinal explants in separate experiments.
(§4) Total RNA was isolated from the treated RMG cells and retinal explants using RNeasy Mini Kit (Qiagen, Courtaboeuf, France). First-strand cDNA was synthesized after DNase I (Qiagen) treatment using random primers (Invitrogen) and superscript II reverse transcriptase (Invitrogen). Transcript levels of ENaC-a, Kir4.1 and AQP4 were analyzed by real-time PCR performed in 7500 Real-Time PCR System (Applied Biosystems, Foster City, Calif., USA) with either TaqMan® (Applied Biosystems) or SYBR® Green (Invitrogen, Cergy Pontoise, France) detection. The 18S was used as internal control.
(§5) Retinal explants were homogenized in Np40 buffer in the presence of protease inhibitors. The protein concentration was determined by the Bradford method. Equal amounts of protein (12 .ug) were separated on Novex® 4%-12% Tris-Glycine gel (Invitrogen), transferred to nitrocellulose, and the blots were incubated with primary antibodies at 4° C. overnight. The membranes were washed, incubated with horse radish peroxidase conjugated goat anti-rabbit IgG (1:3000, Vector, AbCys, Paris, France) for 1 hr at room temperature, and developed using ECL Plus western blotting detection reagents (GE healthcare, Orsay, France). The j3-actin was used as internal control. The following primary antibodies were used: rabbit anti-alpha ENaC (1:500, Abcam, Cambridge, Mass., USA), rabbit anti-Kir4.1 (1:400, Alomone Labs, Jerusalem, Israel), rabbit anti-AQP4 (1:750, Millipore, St Quentin en Yvelines, France) and rabbit anti-j3-actin (1:1000, Abcam)
(In general: Real-time PCR tracks product formation cycle by cycle.)

For data set [6], the system named is ENaC-α. Nature of the data set: ENaC-α expression (real-time PCR, western blot) in rat RMG primary cultures and retinal explants. The format is cell-based. The note with it: for aldosterone-induced increase in ENaC-α subunit transcripts in presence of antagonist: 10 nM aldosterone plus 1 µM antagonist, 24 hrs. How it is done: as §1, §2, §3, §4, §5
Data set [7] has as its system AQP4. Nature of the data set: AQP4 mRNA expression in RMG cells (Example 2). The class given is cell-based. An excerpt:
We have performed several experiments.

In data set [8] the test system is AQP4. Nature of the data set: AQP4 expression (real-time PCR, western blot) in rat RMG primary cultures and retinal explants. The conditions noted are these: for aldosterone induction of AQP4 mRNA in presence of antagonist: 10 nM aldosterone plus 1 µM antagonist, 24 hrs. The format is cell-based. How it is done:
as §1, §2, §3, §4, §5

The mark [9] stands for this setting: 18 months GK rats, 3 intravitreous injections 1 μM, vs vehicle, FIG. 8.
Setting [10] is: GK diabetic rats, intraocular, conclusion.
Where [11] appears, read: GK rats, 1 μM final in the vitreous, 24 hrs after injection, FIG. 6.

For `C[C@]12C[C@H](O)[C@H]3[C@@H](CCC4=CC(=O)CC[C@@]43C)[C@@H]1CC[C@@H]2C(=O)CO` [corticosterone], the “retinal pathology after intraocular injection” value in data set [1] is “develop a retinal pathology very close to CSCR”.

Consider `CC(=O)S[C@@H]1CC2=CC(=O)CC[C@]2(C)[C@H]2CC[C@@]3(C)[C@@H](CC[C@@]34CCC(=O)O4)[C@H]12` [spironolactone, 17-hydroxy-7α-mercapto-3-oxo-17α-pregn-4-ene-21-carboxylic acid γ-lactone acetate], for which, in data set [2] (setting [9]), the “edema in inner/outer (IS/OS) segments and outer nuclear layer (ONL)” value was “decreased”; the “vasodilation in the choriocapillaries” value is listed as “reduced”. Moreover, in data set [2] (setting [10]), the “formation of outer segments” value is recorded as “improves” and the retinal edema entry is given as “efficiently reduces”. In addition, in data set [2] (setting [11]), the “fluid accumulation in the outer nuclear layer (photoreceptor layer)” value was “have decreased” and the “thickness of the outer retina” value is “decreased”. The “ERG b-wave after treatment compared to before treatment” value in data set [3] was “significantly increased”.

Consider `COC(=O)[C@@H]1CC2=CC(=O)CC[C@]2(C)[C@@]23O[C@@H]2C[C@@]2(C)[C@@H](CC[C@@]24CCC(=O)O4)[C@H]13` [eplerenone, Pregn-4-ene-7,21-dicarboxylic acid, 9,11-epoxy-17-hydroxy-3-oxo-,γ-lactone, methyl ester, (7α,11α,17β)], for which the sub retinal fluid entry in data set [4] (FIG. 3 patient, CSCR unresolved for 4 months, 25 mg/day orally for 8 days) was “striking reduction”; in data set [4] (FIG. 3 patient, then 50 mg/day for 8 days, after 2 weeks of treatment), “almost complete resolution”; in data set [4] (FIG. 4 patient, chronic CSCR, 25 mg/day for 8 days then 50 mg/day, 15 days after treatment), “complete resolution”. Further, the recurrence entry in data set [4] (FIG. 3 patient, treatment discontinued after 4 weeks) is on record as “did not show any recurrence”; in data set [4] (FIG. 4 patient, both eyes), “No recurrence”. Also, the macular cysts entry in data set [4] (FIG. 4 patient, chronic CSCR, 15 days after treatment) is listed as “total resolution”. Further, the “vision in the left eye” value in data set [4] (FIG. 4 patient, reduced to 1/10 before treatment) is recorded as 6/10. The kinetics of efficacy result in data set [4] (patients, oral eplerenone) is on record as “as early as the first week of use”. Also, in data set [4] (patients, oral eplerenone, FIGS. 3 and 4), the “regression of sub retinal and/or intra retinal fluid” value was “very rapid and efficient regression”.

For the compound `CCC[C@@H]1CC2=CC(=O)CC[C@]2(C)[C@H]2CC[C@@]3(C)[C@@H](CC[C@@]34CCC(=O)O4)[C@H]12` [RU26752], in data set [5], the “aldosterone-induced Kir4.1 up-regulation in presence of antagonist” value is recorded as “weaker (or no) effect”. In data set [5] (western blot), the “aldosterone-induced Kir4.1 protein in presence of MR antagonist” value was “reduced”. The “aldosterone-induced increase in ENaC-α subunit transcripts in presence of antagonist” value in data set [6] is recorded as “inhibited”. In data set [6] (western blot, retinal explants), the “aldosterone-induced ENaC protein in presence of MR antagonist” value is recorded as “not reduced”. Besides, the “aldosterone induction of AQP4 mRNA on co-administration of MR antagonist” value in data set [7] is “completely blocks the induction”. The “aldosterone induction of AQP4 mRNA in presence of antagonist” value in data set [8] was “fully suppressed”. For the same compound, in data set [8] (western blot), the “aldosterone-induced AQP4 protein in presence of MR antagonist” value is on record as “blocked”.

On to `C[C@]12C=CC(=O)C=C1CC[C@H]1[C@@H]3C[C@@H](O)[C@](O)(C(=O)CO)[C@@]3(C)C[C@H](O)[C@@]12F` [triamcinolone], for which the “expression of the water channel AQP4” value in data set [7] is recorded as “reduces the expression of AQP4”; in data set [7] (listed as triamcinolone acetonide) it was “same effect as a MR antagonist”.

Regarding `CC#C[C@]1(O)CC[C@H]2[C@@H]3CCC4=CC(=O)CCC4=C3[C@@H](c3ccc(N(C)C)cc3)C[C@@]21C` [RU38486], in data set [5], the “aldosterone-induced Kir4.1 up-regulation in presence of antagonist” value was “fully efficient to reduce it”. For the same compound, the “aldosterone-induced increase in ENaC-α subunit transcripts in presence of antagonist” value in data set [6] was “inhibited”. Moreover, the “aldosterone induction of AQP4 mRNA in presence of antagonist” value in data set [8] was “reduces somehow”.
